Measurements published in US11466006B2, “Dual selective PI3 delta and gamma kinase inhibitors” (Rhizen Pharmaceuticals SA, priority 2013, dated 2022).
Where two headings read alike, the source gives them in different places.

How the values were obtained:
Format in all cases: cell-based
Pi3K γ = Pi3K γ (Homo sapiens, UniProt P48736); test: fMLP induced CD63 expression in basophils from human whole blood; conditions: n=10, read-out: IC50 for fMLP (PI3K γ), CD63 positive basophils
Method: PI3K δ and γ signalling in basophils manifested by an alteration of anti-FcεR1 or fMLP induced CD63 expression is a useful pharmacodynamic marker determined using the Flow2CAST® kit (Buhlmann Laboratories, Switzerland). Briefly, it involves the following steps: • Mix the anti-coagulated blood sample by inverting the venipuncture tube several times; • Prepare fresh and pyrogen-free 3.5 ml polypropylene or polystyrene tubes suitable for Flow Cytometry measurements; • Add 49 μl of patient's whole blood to each tube; • Add 1 μl of 10% DMSO (background) or compound (10% DMSO) to the assigned tubes and mix gently. Incubate at room temperature for 15 minutes; • Pipet 50 μl of the Stimulation buffer (background) or anti-FcεRI Ab or or fMLP to each tube; • Add 100 μl of Stimulation Buffer to each tube; • Mix gently. Add 20 μl Staining Reagent (1:1 mix of FITC-CD63 and PE-CCR3) to each tube; • Mix gently, cover the tubes and incubate for 15 minutes at 37° C. in a water bath. […]
Percent CD63 positive cells within the gated basophil population were determined in different treatment groups and normalized to vehicle control.

[1] = tested on: anti-human CD3/CD28 co-stimulated primary T-cells; test: Cytokine assay in anti-human CD3 and CD28 co-stimulated primary T-cells (ELISA); conditions: T-cell, anti-human CD3-CD28 induced, 24 h, eight independent experiments
Method: The objective of this study was to assess the inhibitory potential of Compound A1 on cytokines produced by anti-human CD3/CD28 co-stimulated primary T-cells.
• Plates were coated with 50 μl of anti-human CD3 at a concentration of 100 ng/ml either overnight at 4° C. or for 2 h at 37° C. After incubation, plates were washed twice with sterile PBS to remove unbound antibody. • Isolated human T-cells were re-suspended to 0.625×10^6 cells per ml in 1.5 ml tubes and 1 μl of drug dilution (1000×) was added. A DMSO blank and un-induced blank were maintained. • Cells were incubated with compound at room temperature for 30 min and then added to anti-human CD3 coated wells of a 96-well plate, 240 μl each. Anti-human CD28 was added immediately, 10 μl (25×) per well. • Plate was incubated at 37° C., 5% CO2 for 24 h. • Plates were centrifuged at 4000 rpm at room temperature, supernatant was collected and stored at −20° C. • Cytokines were determined using a commercial ELISA kit with absorbance read at 450 and 570 nm.

pAKT [2] = test: Inhibition of AKT phosphorylation in B-lymphoma cell lines; conditions: LY-1, LY-10, Daudi, JEKO, REC and MAVER cells; 48 hours
Method: LY-1, LY-10, Daudi, JEKO, REC and MAVER cells were incubated with desired concentrations of [compound A1] for 48 hours. Cells were lysed and pAKT was determined by Western Blotting. Bands were quantified using ImageJ and normalized to actin.

pAKT [3] = test: Inhibition of AKT phosphorylation in leukemic cell lines (Western blot); conditions: MOLT-4, Jurkat, CCRF-CEM, Hut-78 & HuT-102; 48 h; read-out: EC50, reduction in pAKT expression
Method: MOLT-4, Jurkat, CCRF-CEM, Hut-78, HuT-102, Sez4 and HH cells were incubated with desired concentrations of compound for 48 h. Cells were lysed and pAKT determined by Western Blotting. Bands were quantified using ImageJ and normalized to actin.

Primary CLL cells = test: Anti-cancer activity in human CLL cells (MTS cytotoxicity); conditions: CLL cell, 72 h, 3 days, read-out: median EC50, cytotoxicity in CLL cells
Method: Primary CLL cells were enriched using Rosette-Sep B cells from Stem Cell Technology, generally giving purity of >97% of B cells/CLL cells. Cells were seeded at 2.5×10^5 per well in a 96 well with either serum free medium (SFM) or SFM+10% heat-inactivated fetal bovine serum (volume 100 microliters) in the presence of desired concentrations of the test compound and cultured for 3 days at 37° C. in a carbon dioxide incubator. Cytotoxicity was determined using the MTS assay.

[4] = tested on: T-lymphoma (MOLT-4, Jurkat, CCRF-CEM, Hut-78 & HuT-102) cells; test: In vitro cell proliferation assay in leukemic cell lines (MTT)
Method: Growth inhibition assays were carried out using 10% FBS supplemented media. Cells were seeded at a concentration of 5000-20,000 cells/well in a 96-well plate. Test compounds at a concentration range from 0.01 to 10000 nM were added after 24 h. Growth was assessed using the 3-[4,5-dimethylthiazol-2-yl]-2,5-diphenyltetrazolium bromide (MTT) dye reduction test at 0 h (prior to the addition of the test compound) and 72 h after the addition of test compound. Absorbance was read on a Fluostar Optima (BMG Labtech, Germany) at a wave length of 450 nm. Data were analysed using GraphPad Prism and percent inhibition due to the test compound compared to the control was calculated accordingly.

Sequence of Pi3K γ (P48736 whole entry): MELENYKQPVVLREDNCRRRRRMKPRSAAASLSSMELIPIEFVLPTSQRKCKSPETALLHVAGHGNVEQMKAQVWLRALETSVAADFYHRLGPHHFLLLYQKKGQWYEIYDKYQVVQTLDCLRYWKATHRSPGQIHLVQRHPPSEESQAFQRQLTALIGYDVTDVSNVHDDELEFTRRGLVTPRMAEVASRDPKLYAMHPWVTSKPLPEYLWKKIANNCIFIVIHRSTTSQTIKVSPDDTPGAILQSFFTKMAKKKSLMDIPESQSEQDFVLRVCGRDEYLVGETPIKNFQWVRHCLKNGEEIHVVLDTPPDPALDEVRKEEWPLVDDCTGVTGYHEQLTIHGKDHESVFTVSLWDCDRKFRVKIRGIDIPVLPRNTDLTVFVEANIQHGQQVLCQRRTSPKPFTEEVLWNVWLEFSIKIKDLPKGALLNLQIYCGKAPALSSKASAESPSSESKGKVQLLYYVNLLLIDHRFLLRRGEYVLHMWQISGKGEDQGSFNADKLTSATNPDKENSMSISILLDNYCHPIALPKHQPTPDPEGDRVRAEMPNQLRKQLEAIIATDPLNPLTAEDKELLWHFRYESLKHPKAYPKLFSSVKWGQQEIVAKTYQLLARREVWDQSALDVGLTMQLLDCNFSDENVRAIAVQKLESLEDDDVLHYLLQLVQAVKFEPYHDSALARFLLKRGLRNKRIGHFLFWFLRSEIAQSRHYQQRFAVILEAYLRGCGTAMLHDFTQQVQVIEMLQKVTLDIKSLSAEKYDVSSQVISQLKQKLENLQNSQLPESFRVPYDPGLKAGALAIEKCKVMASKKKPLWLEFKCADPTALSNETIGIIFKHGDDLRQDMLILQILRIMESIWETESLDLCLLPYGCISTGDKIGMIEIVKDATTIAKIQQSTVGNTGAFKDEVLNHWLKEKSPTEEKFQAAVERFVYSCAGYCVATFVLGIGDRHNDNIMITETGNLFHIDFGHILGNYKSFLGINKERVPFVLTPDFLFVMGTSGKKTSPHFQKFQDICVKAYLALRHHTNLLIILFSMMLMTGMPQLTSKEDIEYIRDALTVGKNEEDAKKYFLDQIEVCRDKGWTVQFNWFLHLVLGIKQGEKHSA

IC50 (Pi3K γ): < 40 nM
IC50 ([1]; read-out: IC50, IFNγ): 9.54 nM
IC50 ([1]; read-out: IC50, IL2): 20.6 nM
IC50 ([1]; read-out: IC50, TNFα): 24 nM
EC50 (pAKT [2]): 20 to 200 nM
EC50 (pAKT [3]): 500 to 2000 nM
GI50 ([4]; MOLT-4, Jurkat, CCRF-CEM, Hut-78 & HuT-102, 72 h, MTT, read-out: GI50, reduction in T-lymphoma cell viability): 1000 to 5000 nM
SMILES: CC[C@H](Nc1ncnc2[nH]cnc12)c1oc2ccccc2c(=O)c1-c1cccc(F)c1 [Compound A1, (S)-2-(1-(9H-purin-6-ylamino)propyl)-3-(3-fluorophenyl)-4H-chromen-4-one]
EC50 (Primary CLL cells; 10% FBS media): < 700 nM
EC50 (Primary CLL cells; serum-free medium): < 100 nM
apparent cytotoxicity ([4]; 72-h incubation period, up to 10 μM): did not display any apparent cytotoxicity
